Blank lines part the entries; values can stand above or below the compound they belong to.
Test system: LG0703-F948-PDC complex spheroid viability
Experiment: Anticancer human tumor LG0703-F948-PDC patient-derived lung adenocarcinoma cell line growth inhibition [RAS]
Conditions: for IC50: curve of first compound; for viability, T/C: stronger effect = lower value
Procedure, shortened: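 Tumour cells grown as complex spheroids with HUVEC endothelial cells and mesenchymal stem cells, treated with RAS pathway inhibitor combinations. Each agent spans half-log steps from near clinical Cmax, or 10 microM where Cmax is unknown.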

[1] = second compound 0.000949 µM, first compound 0.0316 µM
[2] = second compound 0.000949 µM, first compound 0.1 µM
[3] = second compound 0.000949 µM, first compound 0.316 µM
[4] = second compound 0.000949 µM, first compound 1 µM
[5] = second compound 0.000949 µM, first compound 3.16 µM
[6] = second compound 0.000949 µM, first compound 10 µM
[7] = second compound 0.003 µM, first compound 0.0316 µM
[8] = second compound 0.003 µM, first compound 0.1 µM
[9] = second compound 0.003 µM, first compound 0.316 µM
[10] = second compound 0.003 µM, first compound 1 µM
[11] = second compound 0.003 µM, first compound 3.16 µM
[12] = second compound 0.003 µM, first compound 10 µM
[13] = second compound 0.00949 µM, first compound 0.0316 µM
[14] = second compound 0.00949 µM, first compound 0.1 µM
[15] = second compound 0.00949 µM, first compound 0.316 µM
[16] = second compound 0.00949 µM, first compound 1 µM
[17] = second compound 0.00949 µM, first compound 3.16 µM
[18] = second compound 0.00949 µM, first compound 10 µM
[19] = second compound 0.03 µM, first compound 0.0316 µM
[20] = second compound 0.03 µM, first compound 0.1 µM
[21] = second compound 0.03 µM, first compound 0.316 µM
[22] = second compound 0.03 µM, first compound 1 µM
[23] = second compound 0.03 µM, first compound 3.16 µM
[24] = second compound 0.03 µM, first compound 10 µM
[25] = second compound 0.0949 µM, first compound 0.0316 µM
[26] = second compound 0.0949 µM, first compound 0.1 µM
[27] = second compound 0.0949 µM, first compound 0.316 µM
[28] = second compound 0.0949 µM, first compound 1 µM
[29] = second compound 0.0949 µM, first compound 3.16 µM
[30] = second compound 0.0949 µM, first compound 10 µM
[31] = second compound 0.3 µM, first compound 0.0316 µM
[32] = second compound 0.3 µM, first compound 0.1 µM
[33] = second compound 0.3 µM, first compound 0.316 µM
[34] = second compound 0.3 µM, first compound 1 µM
[35] = second compound 0.3 µM, first compound 3.16 µM
[36] = second compound 0.3 µM, first compound 10 µM
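Further: spheroids exposed to agents for 7 days.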
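Wherever viability, T/C is given: 100% = DMSO vehicle wells.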

IC50 (second compound 0.000949 µM): 4620 nM
IC50 (second compound 0.003 µM): < 31.6 nM
IC50 (second compound 0.00949 µM): < 31.6 nM
IC50 (second compound 0.03 µM): < 31.6 nM
IC50 (second compound 0.0949 µM): < 31.6 nM
IC50 (second compound 0.3 µM): < 31.6 nM
SMILES: CC1(O)CCCC1n1c(=O)c(C(F)F)cc2cnc(NC3CCN(S(C)(=O)=O)CC3)nc21 (centres undefined) + CCn1c(-c2cc(N3CCN(C)CC3)cnc2C(C)OC)c2c3cc(ccc31)-c1csc(n1)CC(NC(=O)C1CC1C)C(=O)N1CCCC(N1)C(=O)OCC(C)(C)C2
viability, T/C [1]: 77.1%
viability, T/C [2]: 89.8%
viability, T/C [3]: 69.7%
viability, T/C [4]: 71.1%
viability, T/C [5]: 63%
viability, T/C [6]: 28.3%
viability, T/C [7]: 52.2%
viability, T/C [8]: 48.5%
viability, T/C [9]: 46.9%
viability, T/C [10]: 52.1%
viability, T/C [11]: 46.7%
viability, T/C [12]: 18.4%
viability, T/C [13]: 27.4%
viability, T/C [14]: 31%
viability, T/C [15]: 31%
viability, T/C [16]: 29.3%
viability, T/C [17]: 33.4%
viability, T/C [18]: 13.4%
viability, T/C [19]: 16.4%
viability, T/C [20]: 18.5%
viability, T/C [21]: 15.9%
viability, T/C [22]: 19.1%
viability, T/C [23]: 19.1%
viability, T/C [24]: 7.67%
viability, T/C [25]: 11.3%
viability, T/C [26]: 14%
viability, T/C [27]: 12.9%
viability, T/C [28]: 17%
viability, T/C [29]: 21%
viability, T/C [30]: 5.97%
viability, T/C [31]: 10.2%
viability, T/C [32]: 7.6%
viability, T/C [33]: 15.7%
viability, T/C [34]: 12.1%
viability, T/C [35]: 11.2%
viability, T/C [36]: 5.22%

IC50 (second compound 0.000949 µM): 127 nM
IC50 (second compound 0.003 µM): 34.1 nM
IC50 (second compound 0.00949 µM): < 31.6 nM
IC50 (second compound 0.03 µM): < 31.6 nM
IC50 (second compound 0.0949 µM): < 31.6 nM
IC50 (second compound 0.3 µM): < 31.6 nM
SMILES: CC(C)NCC(C(=O)N1CCN(c2ncnc3c2C(C)CC3O)CC1)c1ccc(Cl)cc1 (centres undefined) + CCn1c(-c2cc(N3CCN(C)CC3)cnc2C(C)OC)c2c3cc(ccc31)-c1csc(n1)CC(NC(=O)C1CC1C)C(=O)N1CCCC(N1)C(=O)OCC(C)(C)C2
viability, T/C [1]: 64.1%
viability, T/C [2]: 54%
viability, T/C [3]: 37.1%
viability, T/C [4]: 30%
viability, T/C [5]: 17.6%
viability, T/C [6]: 14.5%
viability, T/C [7]: 51%
viability, T/C [8]: 35%
viability, T/C [9]: 18%
viability, T/C [10]: 13.1%
viability, T/C [11]: 12.7%
viability, T/C [12]: 8.04%
viability, T/C [13]: 23.2%
viability, T/C [14]: 16.7%
viability, T/C [15]: 10.3%
viability, T/C [16]: 7.8%
viability, T/C [17]: 6.46%
viability, T/C [18]: 3.27%
viability, T/C [19]: 11.7%
viability, T/C [20]: 13.7%
viability, T/C [21]: 7.73%
viability, T/C [22]: 3.93%
viability, T/C [23]: 3.49%
viability, T/C [24]: 1%
viability, T/C [25]: 10%
viability, T/C [26]: 6.85%
viability, T/C [27]: 4.55%
viability, T/C [28]: 3.71%
viability, T/C [29]: 1.27%
viability, T/C [30]: 0.64%
viability, T/C [31]: 9.37%
viability, T/C [32]: 5.76%
viability, T/C [33]: 5.01%
viability, T/C [34]: 3.25%
viability, T/C [35]: 1.87%
viability, T/C [36]: 0.61%
